Experimental data as given in PubChem BioAssay (NCI).
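48-hour exposure; five concentrations; linearly interpolated endpoints. Here, GI50 denotes the concentration required for 50% inhibition of growth. TGI: concentration producing complete growth inhibition.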

Tests used:
Test in all cases: DTP human tumour cell line panel, 48 h
SNB-75 CNS = tested on: SNB-75 CNS
MALME-3M melanoma = tested on: MALME-3M melanoma
A549 NSCLC = tested on: A549 NSCLC
SNB-19 CNS = tested on: SNB-19 CNS
TK-10 renal = tested on: TK-10 renal
SK-OV-3 ovarian = tested on: SK-OV-3 ovarian
HOP-92 NSCLC = tested on: HOP-92 NSCLC
T-47D breast = tested on: T-47D breast
LOX IMVI melanoma = tested on: LOX IMVI melanoma
PC-3 prostate = tested on: PC-3 prostate
NCI-H522 lung = tested on: NCI-H522 lung
OVCAR-3 ovarian = tested on: OVCAR-3 ovarian
M14 melanoma = tested on: M14 melanoma
HOP-62 NSCLC = tested on: HOP-62 NSCLC
EKVX NSCLC = tested on: EKVX NSCLC
U251 CNS = tested on: U251 CNS
SF-268 CNS = tested on: SF-268 CNS
MDA-MB-435 = tested on: MDA-MB-435
HL-60(TB) leukemia = tested on: HL-60(TB) leukemia
HCC-2998 colon = tested on: HCC-2998 colon
SF-539 CNS = tested on: SF-539 CNS
SR leukemia = tested on: SR leukemia
MCF7 breast = tested on: MCF7 breast
RXF 393 renal = tested on: RXF 393 renal
786-0 renal = tested on: 786-0 renal
IGROV1 ovarian = tested on: IGROV1 ovarian
NCI-H226 lung = tested on: NCI-H226 lung
ACHN renal = tested on: ACHN renal
BT-549 breast = tested on: BT-549 breast
COLO 205 colon = tested on: COLO 205 colon
UACC-257 melanoma = tested on: UACC-257 melanoma
MOLT-4 leukemia = tested on: MOLT-4 leukemia
SK-MEL-2 melanoma = tested on: SK-MEL-2 melanoma
SN12C renal = tested on: SN12C renal
A498 renal = tested on: A498 renal
DU-145 prostate = tested on: DU-145 prostate
KM12 colon = tested on: KM12 colon
RPMI-8226 leukemia = tested on: RPMI-8226 leukemia
SK-MEL-28 melanoma = tested on: SK-MEL-28 melanoma
SW-620 colon = tested on: SW-620 colon
CAKI-1 renal = tested on: CAKI-1 renal
HS 578T breast = tested on: HS 578T breast
NCI-H460 lung = tested on: NCI-H460 lung
UO-31 renal = tested on: UO-31 renal
MDA-MB-231 breast = tested on: MDA-MB-231 breast
HCT-116 colon = tested on: HCT-116 colon
SF-295 CNS = tested on: SF-295 CNS
CCRF-CEM leukemia = tested on: CCRF-CEM leukemia
OVCAR-5 ovarian = tested on: OVCAR-5 ovarian
HCT-15 colon = tested on: HCT-15 colon
UACC-62 melanoma = tested on: UACC-62 melanoma
HT29 colon = tested on: HT29 colon
SK-MEL-5 melanoma = tested on: SK-MEL-5 melanoma
OVCAR-4 ovarian = tested on: OVCAR-4 ovarian

How did the GI50 (SNB-75 CNS) turn out when `CCN(CC)c1ccc(NC2=C(Cl)C(=O)c3nc(C)ccc3C2=O)cc1` was run?
Its GI50 is 1.98 µM.

And the TGI (SNB-75 CNS)?
The TGI was 5.03 µM.

And the GI50 (MALME-3M melanoma)?
The GI50 was 2.18 µM.

And the TGI (MALME-3M melanoma)?
Its TGI is 4.13 µM.

And the GI50 (A549 NSCLC)?
Its GI50 is 2.61 µM.

What about the TGI (A549 NSCLC) of the same compound?
Its TGI is 7.05 µM.

What about the GI50 (SNB-19 CNS) of the same compound?
The GI50 was 1.77 µM.

And the TGI (SNB-19 CNS)?
The TGI was 3.35 µM.

What about the GI50 (TK-10 renal) of the same compound?
The GI50 was 2.05 µM.

And the TGI (TK-10 renal)?
Its TGI is 3.51 µM.

And the GI50 (SK-OV-3 ovarian)?
The GI50 was 2.2 µM.

What about the TGI (SK-OV-3 ovarian) of the same compound?
Its TGI is 6.57 µM.

What about the GI50 (HOP-92 NSCLC) of the same compound?
The GI50 was 1.71 µM.

What about the TGI (HOP-92 NSCLC) of the same compound?
The TGI was 3.41 µM.

And the GI50 (T-47D breast)?
Its GI50 is 1.96 µM.

And the TGI (T-47D breast)?
Its TGI is 5.46 µM.

What about the GI50 (LOX IMVI melanoma) of the same compound?
Its GI50 is 1.67 µM.

And the TGI (LOX IMVI melanoma)?
Its TGI is 3.5 µM.

And the GI50 (PC-3 prostate)?
Its GI50 is 1.8 µM.

What about the TGI (PC-3 prostate) of the same compound?
Its TGI is 3.66 µM.

What about the GI50 (NCI-H522 lung) of the same compound?
The GI50 was 1.81 µM.

What about the TGI (NCI-H522 lung) of the same compound?
Its TGI is 3.92 µM.

And the GI50 (OVCAR-3 ovarian)?
The GI50 was 1.81 µM.

And the TGI (OVCAR-3 ovarian)?
Its TGI is 3.3 µM.

What about the GI50 (M14 melanoma) of the same compound?
Its GI50 is 1.73 µM.

What about the TGI (M14 melanoma) of the same compound?
Its TGI is 3.3 µM.

What about the GI50 (HOP-62 NSCLC) of the same compound?
The GI50 was 3.21 µM.

And the TGI (HOP-62 NSCLC)?
Its TGI is 12.2 µM.

And the GI50 (EKVX NSCLC)?
Its GI50 is 1.59 µM.

And the TGI (EKVX NSCLC)?
Its TGI is 3.33 µM.

And the GI50 (U251 CNS)?
Its GI50 is 1.87 µM.

What about the TGI (U251 CNS) of the same compound?
The TGI was 3.57 µM.

What about the GI50 (SF-268 CNS) of the same compound?
The GI50 was 1.8 µM.

What about the TGI (SF-268 CNS) of the same compound?
The TGI was 3.53 µM.

And the GI50 (MDA-MB-435)?
Its GI50 is 1.99 µM.

What about the TGI (MDA-MB-435) of the same compound?
Its TGI is 3.87 µM.

And the GI50 (HL-60(TB) leukemia)?
Its GI50 is 1.55 µM.

And the TGI (HL-60(TB) leukemia)?
The TGI was 4.1 µM.

And the GI50 (HCC-2998 colon)?
The GI50 was 1.89 µM.

And the TGI (HCC-2998 colon)?
The TGI was 3.55 µM.

What about the GI50 (SF-539 CNS) of the same compound?
The GI50 was 1.82 µM.

And the TGI (SF-539 CNS)?
The TGI was 3.38 µM.

What about the GI50 (SR leukemia) of the same compound?
Its GI50 is 0.643 µM.

What about the TGI (SR leukemia) of the same compound?
The TGI was 3.67 µM.

What about the GI50 (MCF7 breast) of the same compound?
The GI50 was 1.94 µM.

What about the TGI (MCF7 breast) of the same compound?
The TGI was 5.04 µM.

What about the GI50 (RXF 393 renal) of the same compound?
The GI50 was 1.63 µM.

And the TGI (RXF 393 renal)?
The TGI was 3.02 µM.

What about the GI50 (786-0 renal) of the same compound?
Its GI50 is 1.87 µM.

What about the TGI (786-0 renal) of the same compound?
The TGI was 3.55 µM.

What about the GI50 (IGROV1 ovarian) of the same compound?
Its GI50 is 2.11 µM.

What about the TGI (IGROV1 ovarian) of the same compound?
The TGI was 4.31 µM.

And the GI50 (NCI-H226 lung)?
Its GI50 is 2.27 µM.

What about the TGI (NCI-H226 lung) of the same compound?
The TGI was 5.6 µM.

What about the GI50 (ACHN renal) of the same compound?
The GI50 was 1.93 µM.

And the TGI (ACHN renal)?
Its TGI is 3.43 µM.

What about the GI50 (BT-549 breast) of the same compound?
The GI50 was 1.58 µM.

What about the TGI (BT-549 breast) of the same compound?
The TGI was 2.96 µM.

What about the GI50 (COLO 205 colon) of the same compound?
Its GI50 is 1.92 µM.

What about the TGI (COLO 205 colon) of the same compound?
The TGI was 3.82 µM.

And the GI50 (UACC-257 melanoma)?
Its GI50 is 1.6 µM.

And the TGI (UACC-257 melanoma)?
Its TGI is 3 µM.

What about the GI50 (MOLT-4 leukemia) of the same compound?
The GI50 was 1.91 µM.

And the TGI (MOLT-4 leukemia)?
The TGI was 5.43 µM.

And the GI50 (SK-MEL-2 melanoma)?
Its GI50 is 1.85 µM.

And the TGI (SK-MEL-2 melanoma)?
Its TGI is 3.48 µM.

What about the GI50 (SN12C renal) of the same compound?
Its GI50 is 1.95 µM.

What about the TGI (SN12C renal) of the same compound?
Its TGI is 4.35 µM.

What about the GI50 (A498 renal) of the same compound?
Its GI50 is 11.9 µM.

And the TGI (A498 renal)?
The TGI was 24.5 µM.

And the GI50 (DU-145 prostate)?
The GI50 was 1.93 µM.

And the TGI (DU-145 prostate)?
The TGI was 3.51 µM.

What about the GI50 (KM12 colon) of the same compound?
Its GI50 is 2.42 µM.

What about the TGI (KM12 colon) of the same compound?
Its TGI is 5.88 µM.

And the GI50 (RPMI-8226 leukemia)?
Its GI50 is 2.52 µM.

And the TGI (RPMI-8226 leukemia)?
Its TGI is 6.29 µM.

What about the GI50 (SK-MEL-28 melanoma) of the same compound?
The GI50 was 2.04 µM.

What about the TGI (SK-MEL-28 melanoma) of the same compound?
The TGI was 3.68 µM.

And the GI50 (SW-620 colon)?
Its GI50 is 2.18 µM.

And the TGI (SW-620 colon)?
The TGI was 4.74 µM.

What about the GI50 (CAKI-1 renal) of the same compound?
The GI50 was 1.61 µM.

What about the TGI (CAKI-1 renal) of the same compound?
Its TGI is 3.16 µM.

What about the GI50 (HS 578T breast) of the same compound?
The GI50 was 2.38 µM.

And the TGI (HS 578T breast)?
Its TGI is 6.37 µM.

What about the GI50 (NCI-H460 lung) of the same compound?
The GI50 was 5.38 µM.

What about the TGI (NCI-H460 lung) of the same compound?
The TGI was 23.2 µM.

What about the GI50 (UO-31 renal) of the same compound?
Its GI50 is 1.54 µM.

And the TGI (UO-31 renal)?
The TGI was 2.93 µM.

What about the GI50 (MDA-MB-231 breast) of the same compound?
Its GI50 is 1.89 µM.

What about the TGI (MDA-MB-231 breast) of the same compound?
The TGI was 3.69 µM.

What about the GI50 (HCT-116 colon) of the same compound?
The GI50 was 1.75 µM.

What about the TGI (HCT-116 colon) of the same compound?
The TGI was 3.63 µM.

And the GI50 (SF-295 CNS)?
The GI50 was 1.97 µM.

And the TGI (SF-295 CNS)?
Its TGI is 4.23 µM.

What about the GI50 (CCRF-CEM leukemia) of the same compound?
Its GI50 is 2.27 µM.

What about the TGI (CCRF-CEM leukemia) of the same compound?
The TGI was 6.43 µM.

What about the GI50 (OVCAR-5 ovarian) of the same compound?
The GI50 was 2.12 µM.

What about the TGI (OVCAR-5 ovarian) of the same compound?
The TGI was 4.1 µM.

What about the GI50 (HCT-15 colon) of the same compound?
The GI50 was 1.63 µM.

What about the TGI (HCT-15 colon) of the same compound?
Its TGI is 3.34 µM.

What about the GI50 (UACC-62 melanoma) of the same compound?
Its GI50 is 1.63 µM.

And the TGI (UACC-62 melanoma)?
Its TGI is 3.13 µM.

What about the GI50 (HT29 colon) of the same compound?
Its GI50 is 2.66 µM.

And the TGI (HT29 colon)?
The TGI was 6.76 µM.

And the GI50 (SK-MEL-5 melanoma)?
The GI50 was 1.75 µM.

And the TGI (SK-MEL-5 melanoma)?
The TGI was 3.22 µM.

What about the GI50 (OVCAR-4 ovarian) of the same compound?
Its GI50 is 1.82 µM.

What about the TGI (OVCAR-4 ovarian) of the same compound?
Its TGI is 3.52 µM.
